# Results published in patent US20240398805A1, “QUINAZOLINE DERIVED COMPOUNDS AS EGFR INHIBITORS AND THEIR USES THEREOF” (ACCUTAR BIOTECHNOLOGY INC., priority 2021, published 2024).
# What was measured:
# Type in all cases: cell-based
# HCC827 cells = assay: Cell growth inhibition (CellTiter-Glo, 3 days) in HCC827; conditions: Homo sapiens, 72 h, 3 days after administration
# In short: (§1)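 HCC827 cells in RPMI/10% FBS and A431 cells in DMEM/10% FBS were seeded at 5000 cells/well and left overnight. Compound was then added over a concentration range for 3 days of incubation, and viability was read by CellTiter-Glo luminescence.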
# [1] = test system: HCC827-YVMA cells (human ERBB2 exon20 insertion mutant A775_G776ins YVMA); assay: Cell growth inhibition (CellTiter-Glo, 3 days) in HCC827-YVMA; conditions: 72 h, 3 days after administration
# In short: (§2)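 Growth inhibition used a CellTiter-Glo luminescence read-out after 3 days of compound exposure at various concentrations. Cells were plated the day before at 5000/well in RPMI plus 10% FBS. The lines are HCC827 transduced by lentivirus with codon-optimized EGFR ASV or ERBB2 YVMA exon 20 insertions.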
# [2] = test system: HCC827-ASV cells (human EGFR exon 20 insertion mutant A769_D770insASV); assay: Cell growth inhibition (CellTiter-Glo, 3 days) in HCC827-ASV; conditions: 72 h, 3 days after administration
# In short: as §2
# [3] = test system: HCC827-SVD cells (human EGFR exon 20 insertion mutant D770_N771 insSVD); assay: Cell growth inhibition (CellTiter-Glo, 3 days) in HCC827-SVD; conditions: 72 h, 3 days after administration
# In short: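 HCC827 cells carrying lentiviral codon-optimized EGFR D770_N771 insSVD, with endogenous EGFR knocked out by CRISPR (single clone), seeded at 5000 cells/well in RPMI with 10% FBS. Viability read by CellTiter-Glo luminescence.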
# A431 cells = assay: Cell growth inhibition (CellTiter-Glo, 3 days) in A431; conditions: Homo sapiens, A-431, 72 h, 3 days after administration
# In short: as §1
SMILES,GI50 (HCC827 cells) [nM],GI50 [1] [nM],GI50 [2] [nM],GI50 [3] [nM],GI50 (A431 cells) [nM]
"C=CC(=O)N1CCC(Nc2cc3c(Nc4ccc(Oc5ccnc(-c6nc(C)c(C)s6)c5)cc4F)ncnc3cc2OC)CC1 [Example 176, 1-(4-((4-((4-((2-(4,5-dimethylthiazol-2-yl)pyridin-4-yl)oxy)-2-fluorophenyl)amino)-7-methoxyquinazolin-6-yl)amino)piperidin-1-yl)prop-2-en-1-one]",100 to 300,< 30,< 30,30 to 60,600 to 1000
"C=CC(=O)N1CCC(Nc2cc3c(Nc4ccc(Oc5ccnc(N6CCC(F)(F)CC6)c5)cc4F)ncnc3cc2OC)CC1 [Example 218, 1-(4-((4-((4-((2-(4,4-difluoropiperidin-1-yl)pyridin-4-yl)oxy)-2-fluorophenyl)amino)-7-methoxyquinazolin-6-yl)amino)piperidin-1-yl)prop-2-en-1-one]",100 to 300,30 to 60,30 to 60,30 to 60,≥ 1000
"C=CC(=O)N1CCC(Nc2cc3c(Nc4ccc(Oc5ccnc(N6CCC(C)(OC)CC6)c5)cc4F)ncnc3cc2OC)CC1 [Example 129, 1-(4-((4-((2-fluoro-4-((2-(4-methoxy-4-methylpiperidin-1-yl)pyridin-4-yl)oxy)phenyl)amino)-7-methoxyquinazolin-6-yl)amino)piperidin-1-yl)prop-2-en-1-one]",300 to 600,60 to 100,30 to 60,60 to 100,≥ 1000
"C=CC(=O)N1CCC(Nc2cc3c(Nc4ccc(Oc5ccnc(N6CC(NC(C)=O)C6)c5)cc4F)ncnc3cc2OC)CC1 [Example 145, N-(1-(4-(4-((6-((1-acryloylpiperidin-4-yl)amino)-7-methoxyquinazolin-4-yl)amino)-3-fluorophenoxy)pyridin-2-yl)azetidin-3-yl)acetamide]",≥ 1000,≥ 1000,≥ 1000,≥ 1000,≥ 1000
"C=CC(=O)N1CCC(Nc2cc3c(Nc4ccc(Oc5ccnc(C6=CCN(C)CC6)c5)cc4F)ncnc3cc2OC)CC1 [Example 213, 1-(4-((4-((2-fluoro-4-((1′-methyl-1′,2′,3′,6′-tetrahydro-[2,4′-bipyridin]-4-yl)oxy)phenyl)amino)-7-methoxyquinazolin-6-yl)amino)piperidin-1-yl)prop-2-en-1-one]",300 to 600,300 to 600,100 to 300,300 to 600,≥ 1000
"C=CC(=O)N1CCC(Nc2cc3c(Nc4ccc(Oc5ccnc(N6CCCN(C)CC6)c5)cc4F)ncnc3cc2OC)CC1 [Example 242, 1-(4-((4-((2-fluoro-4-((2-(4-methyl-1,4-diazepan-1-yl)pyridin-4-yl)oxy)phenyl)amino)-7-methoxyquinazolin-6-yl)amino)piperidin-1-yl)prop-2-en-1-one]",≥ 1000,100 to 300,100 to 300,100 to 300,≥ 1000
"C=CC(=O)N1CCC(Nc2cc3c(Nc4ccc(Oc5ccnc(N6CCOC[C@H]6C)c5)cc4F)ncnc3cc2OC)CC1 [Example 137, (R)-1-(4-((4-((2-fluoro-4-((2-(3-methylmorpholino)pyridin-4-yl)oxy)phenyl)amino)-7-methoxyquinazolin-6-yl)amino)piperidin-1-yl)prop-2-en-1-one]",≥ 1000,300 to 600,100 to 300,100 to 300,≥ 1000
"C=CC(=O)N1CCC(Nc2cc3c(Nc4ccc(Oc5ccnc(N6CCCC(F)(F)C6)c5)cc4F)ncnc3cc2OC)CC1 [Example 219, 1-(4-((4-((4-((2-(3,3-difluoropiperidin-1-yl)pyridin-4-yl)oxy)-2-fluorophenyl)amino)-7-methoxyquinazolin-6-yl)amino)piperidin-1-yl)prop-2-en-1-one]",100 to 300,< 30,< 30,< 30,300 to 600
"C=CC(=O)N1CCC(Nc2cc3c(Nc4ccc(Oc5ccnc(N6CC[C@H](OC)C6)c5)cc4F)ncnc3cc2OC)CC1 [Example 115, (S)-1-(4-((4-((2-fluoro-4-((2-(3-methoxypyrrolidin-1-yl)pyridin-4-yl)oxy)phenyl)amino)-7-methoxyquinazolin-6-yl)amino)piperidin-1-yl)prop-2-en-1-one]",300 to 600,100 to 300,100 to 300,60 to 100,300 to 600
"C=CC(=O)N1CCC(Nc2cc3c(Nc4ccc(Oc5ccn(-c6ccc(C)nc6)n5)cc4F)ncnc3cc2OC)CC1 [Compound 3, 1-(4-((4-((2-fluoro-4-((1-(6-methylpyridin-3-yl)-1H-pyrazol-3-yl)oxy)phenyl)amino)-7-methoxyquinazolin-6-yl)amino)piperidin-1-yl)prop-2-en-1-one]",300 to 600,30 to 60,30 to 60,60 to 100,100 to 300

# Second part, the molecule after the results:
GI50 (HCC827 cells) [nM],GI50 [1] [nM],GI50 [2] [nM],GI50 [3] [nM],GI50 (A431 cells) [nM],SMILES
100 to 300,< 30,< 30,< 30,600 to 1000,"C=CC(=O)N1CCC(Nc2cc3c(Nc4ccc(Oc5ccnc(N6C[C@@H](F)[C@@H](OC)C6)c5)cc4F)ncnc3cc2OC)CC1 [Example 263, 1-(4-((4-((2-fluoro-4-((2-((3R,4S)-3-fluoro-4-methoxypyrrolidin-1-yl)pyridin-4-yl)oxy)phenyl)amino)-7-methoxyquinazolin-6-yl)amino)piperidin-1-yl)prop-2-en-1-one]"
60 to 100,< 30,< 30,< 30,≥ 1000,"C=CC(=O)N1CCC(Nc2cc3c(Nc4ccc(Oc5ccnc(N6CC[C@H](C#N)C6)c5)cc4F)ncnc3cc2OC)CC1 [Example 259, (S)-1-(4-(4-((6-((1-acryloylpiperidin-4-yl)amino)-7-methoxyquinazolin-4-yl)amino)-3-fluorophenoxy)pyridin-2-yl)pyrrolidine-3-carbonitrile]"
30 to 60,< 30,< 30,< 30,600 to 1000,"C=CC(=O)N1CCC(Nc2cc3c(Nc4ccc(Oc5ccnc(N6CC[C@H](C)C6)c5)cc4F)ncnc3cc2OC)CC1 [Example 198, (S)-1-(4-((4-((2-fluoro-4-((2-(3-methylpyrrolidin-1-yl)pyridin-4-yl)oxy)phenyl)amino)-7-methoxyquinazolin-6-yl)amino)piperidin-1-yl)prop-2-en-1-one]"
30 to 60,< 30,< 30,< 30,300 to 600,"C=CC(=O)N1CCC(Nc2cc3c(Nc4ccc(Oc5ccn(-c6cnc(C)c(Cl)c6)n5)cc4F)ncnc3cc2OC)CC1 [Compound 10, 1-(4-((4-((4-((1-(5-chloro-6-methylpyridin-3-yl)-1H-pyrazol-3-yl)oxy)-2-fluorophenyl)amino)-7-methoxyquinazolin-6-yl)amino)piperidin-1-yl)prop-2-en-1-one]"
60 to 100,< 30,< 30,< 30,600 to 1000,"C=CC(=O)N1CCC(Nc2cc3c(Nc4ccc(Oc5ccnc(N6CC(F)(F)C6)c5)cc4F)ncnc3cc2OC)CC1 [Example 201, 1-(4-((4-((4-((2-(3,3-difluoroazetidin-1-yl)pyridin-4-yl)oxy)-2-fluorophenyl)amino)-7-methoxyquinazolin-6-yl)amino)piperidin-1-yl)prop-2-en-1-one]"
60 to 100,30 to 60,30 to 60,30 to 60,300 to 600,"C=CC(=O)N1CCC(Nc2cc3c(Nc4ccc(Oc5ccnc(N[C@@H]6CCOC6)c5)cc4F)ncnc3cc2OC)CC1 [Example 248, (R)-1-(4-((4-((2-fluoro-4-((2-((tetrahydrofuran-3-yl)amino)pyridin-4-yl)oxy)phenyl)amino)-7-methoxyquinazolin-6-yl)amino)piperidin-1-yl)prop-2-en-1-one]"
< 30,≥ 1000,≥ 1000,≥ 1000,≥ 1000,"C=CC(=O)N1CCC(Nc2cc3c(Nc4ccc(Oc5ccnn5-c5cnc(OC)c(F)c5)cc4F)ncnc3cc2OC)CC1 [Example 109, 1-(4-((4-((2-fluoro-4-((1-(5-fluoro-6-methoxypyridin-3-yl)-1H-pyrazol-5-yl)oxy)phenyl)amino)-7-methoxyquinazolin-6-yl)amino)piperidin-1-yl)prop-2-en-1-one]"
30 to 60,100 to 300,60 to 100,100 to 300,100 to 300,"C=CC(=O)N1CCC(Nc2cc3c(Nc4ccc(Oc5ccn(-c6cnc(C)c(F)c6)n5)c(Cl)c4)ncnc3cc2OC)CC1 [Example 20, 1-(4-((4-((3-chloro-4-((1-(5-fluoro-6-methylpyridin-3-yl)-1H-pyrazol-3-yl)oxy)phenyl)amino)-7-methoxyquinazolin-6-yl)amino)piperidin-1-yl)prop-2-en-1-one]"
< 30,< 30,< 30,< 30,100 to 300,"C=CC(=O)N1CCC(Nc2cc3c(Nc4ccc(Oc5ccnc(C(=O)NC)c5)cc4F)ncnc3cc2OC)CC1 [Compound 181, 4-(4-((6-((1-acryloylpiperidin-4-yl)amino)-7-methoxyquinazolin-4-yl)amino)-3-fluorophenoxy)-N-methylpicolinamide]"
